Data taken from PubChem BioAssay AID1919006 (Molecular Pharmacology Branch, DTP, NCI, 2023).

System: 885512-296-R-J2-PDC complex spheroid growth, % test/control
Experiment: Anticancer human tumor 885512-296-R-J2-PDC patient-derived breast carcinoma cell line growth inhibition [AhR]
Settings: for IC50: curve of first compound; for viability, T/C: stronger effect = lower value; active = viability on the fitted dose curve at most 10% of control; inactive = the rest
In short: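 Complex tumor spheroids co-cultured with HUVEC and human MSC stroma; AhR antagonists tested in combination with standard-of-care and investigational agents. Top concentration at or near clinical Cmax (else 10 microM), half-log dilutions; growth expressed as percent test/control.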
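Also: spheroids exposed to compounds for seven days.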

CC(C)CC(NC(=O)C(Cc1ccccc1)NC(=O)c1cnccn1)B(O)O (stereo not given) + Cc1cncc(-c2nc(NCCc3c[nH]c4ccccc34)c3ncn(C(C)C)c3n2)c1
6.48 nM: IC50 (second compound 0.316 µM)
5.6 nM: IC50 (second compound 1 µM)
3.63 nM: IC50 (second compound 3.16 µM)
inactive: viability, T/C (second compound 0.1 µM, first compound 0.000949 µM) 112% | viability, T/C (second compound 0.1 µM, first compound 0.003 µM) 114% | viability, T/C (second compound 0.1 µM, first compound 0.00949 µM) 23.6% | viability, T/C (second compound 0.316 µM, first compound 0.000949 µM) 103% | viability, T/C (second compound 0.316 µM, first compound 0.003 µM) 99% | viability, T/C (second compound 0.316 µM, first compound 0.00949 µM) 25.7% | viability, T/C (second compound 1 µM, first compound 0.000949 µM) 79.2% | viability, T/C (second compound 1 µM, first compound 0.003 µM) 87.7% | viability, T/C (second compound 1 µM, first compound 0.00949 µM) 21.8% | viability, T/C (second compound 3.16 µM, first compound 0.000949 µM) 52.5% | viability, T/C (second compound 3.16 µM, first compound 0.003 µM) 61% | viability, T/C (second compound 3.16 µM, first compound 0.00949 µM) 16.3% | viability, T/C (second compound 10 µM, first compound 0.000949 µM) 16.7% | viability, T/C (second compound 10 µM, first compound 0.003 µM) 16.9%
active: viability, T/C (second compound 0.1 µM, first compound 0.03 µM) 1.75% | viability, T/C (second compound 0.1 µM, first compound 0.0949 µM) 0.64% | viability, T/C (second compound 0.1 µM, first compound 0.3 µM) 0.17% | viability, T/C (second compound 0.316 µM, first compound 0.03 µM) 1.08% | viability, T/C (second compound 0.316 µM, first compound 0.0949 µM) 0.32% | viability, T/C (second compound 0.316 µM, first compound 0.3 µM) 0.14% | viability, T/C (second compound 1 µM, first compound 0.03 µM) 0.9% | viability, T/C (second compound 1 µM, first compound 0.0949 µM) 0.08% | viability, T/C (second compound 1 µM, first compound 0.3 µM) 0.13% | viability, T/C (second compound 3.16 µM, first compound 0.03 µM) 0.59% | viability, T/C (second compound 3.16 µM, first compound 0.0949 µM) 0.07% | viability, T/C (second compound 3.16 µM, first compound 0.3 µM) 0.16% | viability, T/C (second compound 10 µM, first compound 0.00949 µM) 1.8% | viability, T/C (second compound 10 µM, first compound 0.03 µM) 0.43% | viability, T/C (second compound 10 µM, first compound 0.0949 µM) 0.16% | viability, T/C (second compound 10 µM, first compound 0.3 µM) 0.22%
6.75 nM: IC50 (second compound 0.1 µM)
< 0.949 nM: IC50 (second compound 10 µM)

COc1cc(Nc2ncc3c(n2)-c2ccc(Cl)cc2C(c2c(F)cccc2OC)=NC3)ccc1C(=O)O + Cc1cncc(-c2nc(NCCc3c[nH]c4ccccc34)c3ncn(C(C)C)c3n2)c1
inactive: viability, T/C (second compound 0.1 µM, first compound 0.0316 µM) 49.5% | viability, T/C (second compound 0.1 µM, first compound 0.1 µM) 46.1% | viability, T/C (second compound 0.1 µM, first compound 0.316 µM) 47.6% | viability, T/C (second compound 0.1 µM, first compound 1 µM) 50.6% | viability, T/C (second compound 0.1 µM, first compound 3.16 µM) 30.2% | viability, T/C (second compound 0.1 µM, first compound 10 µM) 32% | viability, T/C (second compound 0.316 µM, first compound 0.0316 µM) 53.3% | viability, T/C (second compound 0.316 µM, first compound 0.1 µM) 43.6% | viability, T/C (second compound 0.316 µM, first compound 0.316 µM) 48% | viability, T/C (second compound 0.316 µM, first compound 1 µM) 42.4% | viability, T/C (second compound 0.316 µM, first compound 3.16 µM) 45.8% | viability, T/C (second compound 0.316 µM, first compound 10 µM) 34.2% | viability, T/C (second compound 1 µM, first compound 0.0316 µM) 44.5% | viability, T/C (second compound 1 µM, first compound 0.1 µM) 37.8% | viability, T/C (second compound 1 µM, first compound 0.316 µM) 46% | viability, T/C (second compound 1 µM, first compound 1 µM) 41.7% | viability, T/C (second compound 1 µM, first compound 3.16 µM) 39.7% | viability, T/C (second compound 1 µM, first compound 10 µM) 39.5% | viability, T/C (second compound 3.16 µM, first compound 0.0316 µM) 32.6% | viability, T/C (second compound 3.16 µM, first compound 0.1 µM) 35.6% | viability, T/C (second compound 3.16 µM, first compound 0.316 µM) 33.6% | viability, T/C (second compound 3.16 µM, first compound 1 µM) 34% | viability, T/C (second compound 3.16 µM, first compound 3.16 µM) 32.2% | viability, T/C (second compound 3.16 µM, first compound 10 µM) 31.2% | viability, T/C (second compound 10 µM, first compound 0.0316 µM) 16.2% | viability, T/C (second compound 10 µM, first compound 0.1 µM) 12.8% | viability, T/C (second compound 10 µM, first compound 0.316 µM) 13.3% | viability, T/C (second compound 10 µM, first compound 1 µM) 14.8% | viability, T/C (second compound 10 µM, first compound 3.16 µM) 17.2% | viability, T/C (second compound 10 µM, first compound 10 µM) 17.6%
31.6 nM: IC50 (second compound 0.1 µM)
< 31.6 nM: IC50 (second compound 1 µM) | IC50 (second compound 3.16 µM) | IC50 (second compound 10 µM)
48.3 nM: IC50 (second compound 0.316 µM)
